Earlier results in patent publication US20150374878A1, “[…] FOR WOUND CARE” (AKESO BIOMEDICAL, INC., priority 2014, published 2015).

Settings: see U.S. Pat. No. 5,858,365 to Faller

Compound: CCCC(=O)O [butyric acid]
- half-life in serum: about 2 minutes
